Experiments:
Assay in all cases: Eurofins kinase profiling
Format in all cases: biochemical
Flt1(h) = biological target: T1, Flt1(h) (Homo sapiens, UniProt P17948); settings: read-out: residual kinase activity Flt1(h)
T1 construct: purchased Eurofins KinaseProfiler
Method: (§1) The kinase profiling analysis was performed at Eurofins (Poitiers, France). A total of 110 kinase assays were carried out according to Eurofins’ standard protocols. For protein kinase assays, the kinase activity was measured using Eurofins’ KinaseProfiler radiometric assay. In this assay, a panel of kinases was incubated with the test compound SJP1602 at a concentration of 1 µM, and the kinase activity was determined using radiolabeled phosphate as a substrate. Lipid and atypical kinase assays were conducted using Eurofins’ homogeneous time-resolved fluorescence assay. The same panel of kinases was incubated with SJP1602 at a concentration of 1 µM, and the activity of lipid and atypical kinases was measured using this assay.

EphB4(h) = biological target: T2, EphB4(h) (Homo sapiens, UniProt P54760); settings: read-out: residual kinase activity EphB4(h)
T2 construct: purchased Eurofins KinaseProfiler
T2 sequence (P54760 16-987): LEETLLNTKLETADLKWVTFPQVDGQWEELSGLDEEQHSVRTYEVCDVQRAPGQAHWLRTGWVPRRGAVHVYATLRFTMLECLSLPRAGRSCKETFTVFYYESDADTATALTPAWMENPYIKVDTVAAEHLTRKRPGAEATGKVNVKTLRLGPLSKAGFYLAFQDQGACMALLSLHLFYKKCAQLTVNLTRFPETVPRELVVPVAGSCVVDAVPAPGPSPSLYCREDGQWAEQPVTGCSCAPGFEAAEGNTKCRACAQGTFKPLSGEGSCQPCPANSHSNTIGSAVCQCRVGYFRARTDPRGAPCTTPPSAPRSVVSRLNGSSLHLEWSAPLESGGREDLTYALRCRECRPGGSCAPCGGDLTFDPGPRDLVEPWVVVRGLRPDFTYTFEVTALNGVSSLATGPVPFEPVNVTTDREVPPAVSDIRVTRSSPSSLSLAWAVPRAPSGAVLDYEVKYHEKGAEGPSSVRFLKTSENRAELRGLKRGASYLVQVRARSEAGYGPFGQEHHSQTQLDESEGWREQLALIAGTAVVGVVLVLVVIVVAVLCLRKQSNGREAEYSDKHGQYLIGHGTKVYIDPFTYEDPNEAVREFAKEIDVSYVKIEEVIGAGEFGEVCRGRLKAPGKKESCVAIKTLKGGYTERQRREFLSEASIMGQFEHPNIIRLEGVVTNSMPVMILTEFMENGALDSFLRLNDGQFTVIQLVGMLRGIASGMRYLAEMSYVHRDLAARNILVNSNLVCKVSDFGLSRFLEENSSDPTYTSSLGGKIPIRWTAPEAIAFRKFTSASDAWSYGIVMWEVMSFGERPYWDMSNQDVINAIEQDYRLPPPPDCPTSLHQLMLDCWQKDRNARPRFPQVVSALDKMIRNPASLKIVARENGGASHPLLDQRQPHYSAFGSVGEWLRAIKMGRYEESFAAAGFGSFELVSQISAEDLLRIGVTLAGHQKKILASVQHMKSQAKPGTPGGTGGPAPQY
Method: as §1

IKKε(h) = biological target: T3, IKKε(h) (Homo sapiens, UniProt Q14164); settings: read-out: residual kinase activity IKKε(h)
T3 construct: purchased Eurofins KinaseProfiler
T3 sequence (Q14164 1-716): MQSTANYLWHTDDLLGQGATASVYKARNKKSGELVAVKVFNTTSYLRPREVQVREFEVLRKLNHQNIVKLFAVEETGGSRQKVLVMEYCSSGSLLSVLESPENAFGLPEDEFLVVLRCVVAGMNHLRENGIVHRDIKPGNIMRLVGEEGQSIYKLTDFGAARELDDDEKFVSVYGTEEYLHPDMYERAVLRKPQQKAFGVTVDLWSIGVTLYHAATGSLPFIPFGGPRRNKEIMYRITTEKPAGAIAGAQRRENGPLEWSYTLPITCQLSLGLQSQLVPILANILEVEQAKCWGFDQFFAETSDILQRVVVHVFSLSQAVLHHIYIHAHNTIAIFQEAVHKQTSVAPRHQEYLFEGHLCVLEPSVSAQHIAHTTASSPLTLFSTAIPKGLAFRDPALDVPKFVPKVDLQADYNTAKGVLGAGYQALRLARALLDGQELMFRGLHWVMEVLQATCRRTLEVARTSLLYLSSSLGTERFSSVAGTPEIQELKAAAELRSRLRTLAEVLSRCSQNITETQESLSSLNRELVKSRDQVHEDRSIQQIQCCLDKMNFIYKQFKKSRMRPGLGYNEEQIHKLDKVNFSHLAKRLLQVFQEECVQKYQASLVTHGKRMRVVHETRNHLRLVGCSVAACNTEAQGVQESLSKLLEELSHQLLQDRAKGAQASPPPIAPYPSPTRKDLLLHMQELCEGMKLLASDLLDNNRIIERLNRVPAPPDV
Method: as §1

EphA2(h) = biological target: T4, EphA2(h) (Homo sapiens, UniProt P29317); settings: read-out: residual kinase activity EphA2(h)
T4 construct: purchased Eurofins KinaseProfiler
Method: as §1

IGF-1R(h), activated = biological target: T5, IGF-1R(h), activated (Homo sapiens, UniProt P08069); settings: 1 µM
T5 construct: purchased Eurofins KinaseProfiler
T5 sequence (P08069 31-1367): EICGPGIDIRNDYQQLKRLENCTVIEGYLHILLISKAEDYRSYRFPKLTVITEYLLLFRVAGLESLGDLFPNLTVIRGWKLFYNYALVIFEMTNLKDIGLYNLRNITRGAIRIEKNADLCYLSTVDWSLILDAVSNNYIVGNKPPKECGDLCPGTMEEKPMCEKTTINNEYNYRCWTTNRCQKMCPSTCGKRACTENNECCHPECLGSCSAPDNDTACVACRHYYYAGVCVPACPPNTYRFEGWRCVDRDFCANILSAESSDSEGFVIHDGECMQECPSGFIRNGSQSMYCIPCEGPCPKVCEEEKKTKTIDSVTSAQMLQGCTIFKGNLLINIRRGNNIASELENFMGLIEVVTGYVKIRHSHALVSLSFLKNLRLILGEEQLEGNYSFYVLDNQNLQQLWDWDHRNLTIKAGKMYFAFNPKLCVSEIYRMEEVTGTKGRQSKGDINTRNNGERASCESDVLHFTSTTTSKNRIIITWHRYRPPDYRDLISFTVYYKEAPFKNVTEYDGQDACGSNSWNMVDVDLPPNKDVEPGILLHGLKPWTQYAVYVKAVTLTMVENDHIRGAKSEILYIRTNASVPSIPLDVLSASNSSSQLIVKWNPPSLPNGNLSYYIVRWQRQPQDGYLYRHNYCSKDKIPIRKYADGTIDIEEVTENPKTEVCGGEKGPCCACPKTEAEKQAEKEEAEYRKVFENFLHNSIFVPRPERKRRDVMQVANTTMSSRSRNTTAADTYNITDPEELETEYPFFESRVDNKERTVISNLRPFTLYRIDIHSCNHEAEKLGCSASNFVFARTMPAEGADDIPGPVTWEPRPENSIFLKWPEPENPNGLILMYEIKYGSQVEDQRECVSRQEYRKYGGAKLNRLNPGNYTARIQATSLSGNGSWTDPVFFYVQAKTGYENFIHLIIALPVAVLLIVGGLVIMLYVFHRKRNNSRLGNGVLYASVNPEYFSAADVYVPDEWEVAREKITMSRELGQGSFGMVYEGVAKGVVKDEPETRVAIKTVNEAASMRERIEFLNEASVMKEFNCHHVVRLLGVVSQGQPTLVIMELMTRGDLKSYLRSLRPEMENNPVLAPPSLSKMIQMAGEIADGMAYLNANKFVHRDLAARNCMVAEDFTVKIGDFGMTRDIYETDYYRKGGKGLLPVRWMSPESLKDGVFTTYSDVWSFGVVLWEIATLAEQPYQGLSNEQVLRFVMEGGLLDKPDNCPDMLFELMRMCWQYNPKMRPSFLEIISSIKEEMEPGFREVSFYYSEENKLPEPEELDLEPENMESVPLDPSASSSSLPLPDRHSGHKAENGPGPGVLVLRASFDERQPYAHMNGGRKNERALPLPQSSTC
Method: as §1

Flt4(h) = biological target: T6, Flt4(h) (Homo sapiens, UniProt P35916); settings: read-out: residual kinase activity Flt4(h)
T6 construct: purchased Eurofins KinaseProfiler
T6 sequence (P35916 25-1363): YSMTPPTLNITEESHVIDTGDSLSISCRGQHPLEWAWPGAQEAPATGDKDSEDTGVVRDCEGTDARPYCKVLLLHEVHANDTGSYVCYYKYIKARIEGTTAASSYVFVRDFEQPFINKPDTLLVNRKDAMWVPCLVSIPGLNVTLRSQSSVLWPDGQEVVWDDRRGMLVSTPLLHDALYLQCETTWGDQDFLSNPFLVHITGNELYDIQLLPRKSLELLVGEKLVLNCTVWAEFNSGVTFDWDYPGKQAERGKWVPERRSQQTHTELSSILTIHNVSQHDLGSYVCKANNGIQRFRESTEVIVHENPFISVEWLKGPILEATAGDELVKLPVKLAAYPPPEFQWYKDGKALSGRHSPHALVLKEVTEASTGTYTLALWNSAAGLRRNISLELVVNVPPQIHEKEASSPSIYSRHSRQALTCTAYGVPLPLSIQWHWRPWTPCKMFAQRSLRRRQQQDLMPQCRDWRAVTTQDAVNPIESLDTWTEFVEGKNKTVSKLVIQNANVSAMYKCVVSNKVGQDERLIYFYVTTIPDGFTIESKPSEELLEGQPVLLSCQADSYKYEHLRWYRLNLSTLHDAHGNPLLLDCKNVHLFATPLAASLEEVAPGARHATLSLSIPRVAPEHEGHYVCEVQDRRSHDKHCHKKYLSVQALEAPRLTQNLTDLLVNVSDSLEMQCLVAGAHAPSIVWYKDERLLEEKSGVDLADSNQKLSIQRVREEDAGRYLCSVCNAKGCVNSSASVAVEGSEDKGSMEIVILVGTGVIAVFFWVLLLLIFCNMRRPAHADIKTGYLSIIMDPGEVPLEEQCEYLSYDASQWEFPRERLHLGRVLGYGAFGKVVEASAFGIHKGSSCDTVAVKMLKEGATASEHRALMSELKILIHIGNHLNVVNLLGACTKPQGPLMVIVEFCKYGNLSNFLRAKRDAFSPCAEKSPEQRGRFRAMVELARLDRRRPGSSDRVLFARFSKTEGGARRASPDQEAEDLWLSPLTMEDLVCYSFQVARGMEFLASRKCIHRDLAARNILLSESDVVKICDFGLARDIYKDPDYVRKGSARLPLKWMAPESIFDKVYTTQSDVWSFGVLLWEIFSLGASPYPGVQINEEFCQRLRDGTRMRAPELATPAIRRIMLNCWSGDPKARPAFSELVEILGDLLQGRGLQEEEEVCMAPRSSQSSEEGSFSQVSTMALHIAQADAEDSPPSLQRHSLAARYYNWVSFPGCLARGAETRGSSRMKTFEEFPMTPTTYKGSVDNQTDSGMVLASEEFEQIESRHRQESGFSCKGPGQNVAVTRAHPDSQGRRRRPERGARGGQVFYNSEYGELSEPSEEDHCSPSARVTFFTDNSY
Method: as §1

FGFR3(h) = biological target: T7, FGFR3(h) (Homo sapiens, UniProt P22607); settings: read-out: residual kinase activity FGFR3(h)
T7 construct: purchased Eurofins KinaseProfiler
T7 sequence (P22607 23-806): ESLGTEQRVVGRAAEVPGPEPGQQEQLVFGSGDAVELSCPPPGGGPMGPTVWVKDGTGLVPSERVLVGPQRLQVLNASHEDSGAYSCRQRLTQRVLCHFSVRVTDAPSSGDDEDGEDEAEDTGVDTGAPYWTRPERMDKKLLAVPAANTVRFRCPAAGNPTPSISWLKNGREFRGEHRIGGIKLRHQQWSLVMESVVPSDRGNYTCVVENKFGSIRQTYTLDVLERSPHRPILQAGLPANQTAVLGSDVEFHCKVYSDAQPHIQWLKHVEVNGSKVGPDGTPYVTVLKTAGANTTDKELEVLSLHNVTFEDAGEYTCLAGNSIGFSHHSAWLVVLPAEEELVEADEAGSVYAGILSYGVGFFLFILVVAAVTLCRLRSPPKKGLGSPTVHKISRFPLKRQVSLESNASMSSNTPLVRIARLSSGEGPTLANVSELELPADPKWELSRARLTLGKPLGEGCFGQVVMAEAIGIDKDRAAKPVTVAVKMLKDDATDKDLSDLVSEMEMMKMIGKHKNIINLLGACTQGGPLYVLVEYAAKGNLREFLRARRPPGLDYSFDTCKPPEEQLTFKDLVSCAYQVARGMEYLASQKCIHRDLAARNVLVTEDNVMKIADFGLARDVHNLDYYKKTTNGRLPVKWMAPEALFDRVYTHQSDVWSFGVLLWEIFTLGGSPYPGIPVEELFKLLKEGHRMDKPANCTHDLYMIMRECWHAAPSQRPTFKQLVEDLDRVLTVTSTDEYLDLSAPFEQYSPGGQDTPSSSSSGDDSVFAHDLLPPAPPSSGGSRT
Method: as §1

FAK(h) = biological target: T8, FAK(h) (Homo sapiens, UniProt Q05397); settings: read-out: residual kinase activity FAK(h)
T8 construct: purchased Eurofins KinaseProfiler
Method: as §1

T1 sequence (P17948 27-1338): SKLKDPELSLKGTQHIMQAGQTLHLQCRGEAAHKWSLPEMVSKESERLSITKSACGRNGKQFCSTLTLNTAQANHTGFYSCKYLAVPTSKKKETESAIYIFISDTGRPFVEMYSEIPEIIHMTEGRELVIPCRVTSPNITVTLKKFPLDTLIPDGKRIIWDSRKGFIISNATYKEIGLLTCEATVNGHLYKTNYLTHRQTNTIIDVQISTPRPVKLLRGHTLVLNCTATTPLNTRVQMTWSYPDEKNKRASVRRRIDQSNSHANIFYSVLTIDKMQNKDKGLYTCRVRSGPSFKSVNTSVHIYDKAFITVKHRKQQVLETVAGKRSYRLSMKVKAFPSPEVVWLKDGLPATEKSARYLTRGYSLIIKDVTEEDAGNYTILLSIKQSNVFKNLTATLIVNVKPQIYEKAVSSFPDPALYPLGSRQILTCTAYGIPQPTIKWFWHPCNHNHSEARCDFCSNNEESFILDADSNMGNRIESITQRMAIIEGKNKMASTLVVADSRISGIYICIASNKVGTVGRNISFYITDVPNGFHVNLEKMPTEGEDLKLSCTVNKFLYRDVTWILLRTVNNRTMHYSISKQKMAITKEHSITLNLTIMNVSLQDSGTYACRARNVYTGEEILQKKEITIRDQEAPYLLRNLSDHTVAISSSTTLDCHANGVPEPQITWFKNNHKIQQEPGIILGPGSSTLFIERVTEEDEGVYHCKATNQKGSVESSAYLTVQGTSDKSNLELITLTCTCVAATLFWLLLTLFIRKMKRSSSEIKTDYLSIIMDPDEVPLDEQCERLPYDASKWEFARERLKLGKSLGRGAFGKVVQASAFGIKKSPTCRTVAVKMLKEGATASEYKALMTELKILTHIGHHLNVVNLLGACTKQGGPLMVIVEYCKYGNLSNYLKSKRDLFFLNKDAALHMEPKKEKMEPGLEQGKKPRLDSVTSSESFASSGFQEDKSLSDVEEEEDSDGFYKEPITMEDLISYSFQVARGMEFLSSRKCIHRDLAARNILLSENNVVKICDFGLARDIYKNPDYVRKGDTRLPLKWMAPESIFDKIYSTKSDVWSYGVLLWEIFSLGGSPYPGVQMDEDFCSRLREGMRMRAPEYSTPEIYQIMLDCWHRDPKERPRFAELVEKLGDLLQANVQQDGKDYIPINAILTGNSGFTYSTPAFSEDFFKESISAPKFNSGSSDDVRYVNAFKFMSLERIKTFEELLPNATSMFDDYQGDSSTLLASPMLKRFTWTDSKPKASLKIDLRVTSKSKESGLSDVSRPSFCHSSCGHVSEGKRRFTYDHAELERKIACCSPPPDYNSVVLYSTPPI

Work on `CONC(=O)c1ccccc1Nc1cc(Nc2cc(C)nn2C(C)C)ncc1Cl` [GSK2256098] yielded a remaining activity at 1 µM (Flt1(h)) of 94%, a remaining activity at 1 µM (EphB4(h)) of 94% and a remaining activity at 1 µM (IKKε(h)) of 102%. The remaining activity at 1 µM (EphA2(h)) was 92%, the “residual kinase activity IGF-1R(h), activated” value (IGF-1R(h), activated) was 108 and the remaining activity at 1 µM (Flt4(h)) was 67%. The remaining activity at 1 µM (FGFR3(h)) was 91% and the remaining activity at 1 µM (FAK(h)) was -1%.

With `CNC(=O)c1ccc(Nc2ncc(C(F)(F)F)c(NCc3nccnc3N(C)S(C)(=O)=O)n2)cc1` [VS-6063, Defactinib] the remaining activity at 1 µM (Flt1(h)) was 21%, the remaining activity at 1 µM (EphB4(h)) was 67% and the remaining activity at 1 µM (IKKε(h)) was 88%. The remaining activity at 1 µM (EphA2(h)) was 91%, the “residual kinase activity IGF-1R(h), activated” value (IGF-1R(h), activated) was 74 and the remaining activity at 1 µM (Flt4(h)) was -3%. It also gave a remaining activity at 1 µM (FGFR3(h)) of 44% and a remaining activity at 1 µM (FAK(h)) of -6%.

Work on `CNC(=O)c1cccc(C)c1Nc1nc(Nc2ccc(N3CCN(C4C5CC6CC4CC(O)(C6)C5)CC3)cc2OC)ncc1C(F)(F)F` (stereo not drawn) [SJP1602, 2-((2-((4-(4-((2s,5r)-5-hydroxyadamantan-2-yl)piperazin-1-yl)-2-methoxyphenyl)amino)-5-(trifluoromethyl)pyrimidin-4-yl)amino)-N,3-dimethylbenzamide] yielded a remaining activity at 1 µM (Flt1(h)) of 106%, a remaining activity at 1 µM (EphB4(h)) of 93% and a remaining activity at 1 µM (IKKε(h)) of 103%. The remaining activity at 1 µM (EphA2(h)) was 105%, the “residual kinase activity IGF-1R(h), activated” value (IGF-1R(h), activated) was 105 and the remaining activity at 1 µM (Flt4(h)) was 104%. For the same molecule, the remaining activity at 1 µM (FGFR3(h)) was 86% and the remaining activity at 1 µM (FAK(h)) was 3%.
